# Measurements reported in patent publication US10494402B2, “Peptides that stimulate subcutaneous adipogenesis” (The Regents of the University of California, priority 2012, dated 2019).
# Columns and labels:
# [1] = system: rat mesenchymal stem cells; assay: Adipogenesis Assay 2 (dexamethasone/insulin/indomethacin induction, then peptide; Oil Red O or BODIPY); assay type: cell-based; settings: Assay 2
# Procedure: Reagents: The dexamethasone, insulin, and Oil Red O solutions were the same as described above for assay 1. Indomethacin Solution contained 10 mM indomethacin in methanol. The BODIPY 493/503 dye was used at a concentration of 4 μM.
# Adipogenesis Maintenance Media was prepared as described above.
# Adipogenesis Induction Media: To prepare 501 mL of Adipogenesis Induction Media, 50 μL of the 10 mM stock solution of dexamethasone, 500 μL of the 10 mg/ml stock solution of insulin, 5 ml of a 10 mM stock solution of indomethacin, and 5 mL of a 100× stock solution of penicillin and streptomycin were added to 490 mL of mesenchymal stem cell expansion media.
# Pre-adipocyte stem cells, bone marrow mesenchymal stem cells and fibroblasts such as dermal reticular and papillary fibroblasts were propagated using standard tissue culture methods. Cells were trypsinized to remove cells from the substratum, the trypsin was neutralized, and cells were counted using a hemocytometer. Cells were resuspended at 60,000 cells/ml in low glucose DMEM containing 10% calf serum. 1 mL of cell suspension per well was plated in a 24-well plate, with several wells left empty for blank well staining.
# (§1) Cells were incubated overnight and had reached confluency at this point. Approximately 1.8 ml of media was removed from each well and replaced with 2 ml Adipogenesis Induction Media. For negative control wells, expansion medium only was used at this step and for subsequent media changes. For all media changes, media was replaced as gently as possible to avoid disturbing the monolayer.
# Media was removed and replaced with 2 ml of maintenance medium containing either RHAMM antagonist peptides (experimental group) or insulin (concentration as in the induction medium used as positive control). […]
# Media was removed and BODIPY or Oil Red O staining was performed as described above for assay 1.
# As described above in Example 1, two different adipogenesis assays were used herein to assess the adipogenic effects of the peptides in rat mesenchymal stem cells. Assay 1 is an assay that is typically used to promote transdifferentiation of fibroblasts into adipocytes, whereas Assay 2 is typically used to promote differentiation of multi-potential mesenchymal progenitor cells into adipocytes. Immortalized rat bone marrow mesenchymal stem cells were used for both assays. These cells contain cells of different lineages, including fibroblasts, pre-adipocytes, pre-chondrocytes and pre-osteoblasts. Thus, Assay 1 was used to promote transdifferentiation of the fibroblast lineages into adipocytes and Assay 2 was used to promote differentiation of the pre-adipocytes into adipocytes.
# As described in Example 1 above, the priming stimulus for Assay 1 includes IBMX (3-isobutyl-1-methylxanthine) and dexamethasone, and then insulin as the final adipogenic stimulus. The priming stimulus for assay 2 includes IBMX, dexamethasone and indomethacin, and then insulin as the final adipogenic stimulus.
# [2] = system: rat mesenchymal stem cells; assay: Adipogenesis Assay 1 (IBMX/dexamethasone priming, peptide replaces insulin; Oil Red O or BODIPY); assay type: cell-based; settings: for Fold adipogenic induction vs. negative control / Specific activity (activity/1000 daltons) / adipogenesis, absorption of Oil Red O at 520 nm, fold increase compared with negative control / adipogenesis, number of fat droplets relative to negative controls (image analysis): Assay 1; for adipogenesis, absorption of Oil Red O at 520 nm, fold increase compared with negative control / adipogenesis, number of fat droplets relative to negative controls (image analysis): rat bone marrow mesenchymal stem cells, n=3; for adipogenesis, absorption of Oil Red O at 520 nm, fold increase compared with negative control: 0.1-25 μg
# Procedure: Reagents: (1) 3-isobutyl-1-methylxanthine (IBMX) solution: 0.5M in DMSO; (2) Insulin solution: 10 mg/mL recombinant human insulin; (3) Dexamethasone solution in 10 mM in ethanol; (4) Oil Red O (0.36% in 60% isopropanol) or BODIPY dye (BODIPY 493/503 (4,4-difluoro-1,3,5,7-tetramethyl-4-bora-3a,4a-diaza-s-indacene-8-propionic acid, succinimidyl ester) from Invitrogen at 4-10 μM).
# Adipogenesis Initiation Media: mesenchymal stem cell expansion media/0.5 mM IBMX/1 μM dexamethasone. Mesenchymal stem cell expansion media is commercially available from Millipore. The IBMX Solution was diluted 1:1000 and the Dexamethasone Solution was diluted 1:10,000 in expansion media containing antibiotics and antimycotics. The prepared media was stored at 4° C.
# Adipogenesis Progression Media for positive control: mesenchymal stem cell expansion media/10 μg/mL insulin. The Insulin Solution was diluted 1:1000 in the expansion media and stored at 4° C.
# Experimental Adipogenesis Progression Media: mesenchymal stem cell expansion media/1-100 μg/mL RHAMM antagonist peptides.
# Adipogenesis Maintenance Media: mesenchymal stem cell expansion media containing antibiotics and antimycotics.
# Negative Control Media: DMEM/10% normal calf serum.
# Pre-adipocyte stem cells including bone marrow mesenchymal stem cells and fibroblasts including reticular and papillary dermal fibroblasts were propagated using standard tissue culture methods. Cells were trypsinized to remove the cells from the substratum. The trypsin was neutralized and cells were counted using a hemocytometer. Cells were resuspended at 30,000 cells/mL in expansion media. […] of cell suspension was plated per well of 24-well plate, with several wells left empty for blank well staining.
# as §1, with “for 1-2 days until they” for “overnight and had”, “confluency.” for “confluency at this point.”, “mL” for “ml”, “Initiation” for “Induction”, “media” for “medium”
# Cells were incubated for 48 hours at 37° C., 5% CO2. 2 mL media was removed from each well, and replaced with 2 mL either positive control or experimental Adipogenesis Progression Media per well. Cells were again incubated for 48 hours at 37° C., 5% CO2. 2 mL of media was removed from each well and replaced with 2 mL Adipogenesis Maintenance Media per well. In addition, media was added to the empty wells reserved for blank well staining Cells were incubated for at least 48 hours at 37° C., 5% CO2. Media was replaced every 48-72 hours. Accumulation of intracellular lipid droplets continued for at least 5 days.
# For quantification of Oil Red O staining, media was removed and cells were washed twice with PBS, using care to gently add the PBS. 0.5 mL Oil Red O solution was added per well of 24-well plate, including to the wells lacking cells, but containing media. Cells were incubated for 15 minutes at room temperature. The staining solution was then removed and wells were washed three times with 1 mL of phosphate buffered saline (PBS). In some experiments, following removal of the last wash, stained plates were scanned or photographed.
# Adipogenesis was quantified using a spectrophotometer or fluorometer. 0.25 mL Dye Extraction Solution (isopropyl alcohol) was added per well, and the plate was set on an orbital shaker or platform rocker for 15-30 minutes. Extracted dye was transferred into a cuvette and absorbance was read in a spectrophotometer at visible range for oil red 0 or transferred to a 96-well plate and quantified in a plate reader.
# For quantification of BODIPY dye uptake, media was removed and cells were washed twice with PBS, using care to gently add the PBS. Cells were then fixed in 3% paraformaldehyde, washed in PBS then incubated for 1 hour in the dark with the BODIPY solution, prepared in PBS. […]
# [3] = system: mesenchymal stem cells or papillary fibroblasts; assay: Adipogenesis by RHAMM antagonists in tissue culture and in vivo (summary statements)
# From the text: We hypothesized that the fragment and the antibody were blocking RHAMM function by competitive inhibition and by direct binding/blocking of RHAMM, respectively. Using truncation analyses, the size of the peptide was further reduced to 32 amino acids ([…] (SEQ ID NO: 92)) and it was shown that adipogenic activity is localized to a 15 amino acid peptide (KLKDENSQLKSEVSK (SEQ ID NO: 2); “peptide B” or “B-1” herein) shown in FIG. 2. This peptide was chemically synthesized to use as a competitive blocker, and antibodies were prepared against this sequence tagged with keyhold lymphocyte hemacyanin (KLH) to directly bind/block RHAMM function.
# The RHAMM sequence that contains adipogenic activity also contains the hyaluronan binding region of this protein.
# All of these reagents can replace insulin in their ability to promote adipogenesis in mesenchymal stem cells or papillary fibroblasts.
Substance,Fold adipogenic induction vs. negative control [1],Specific activity (activity/1000 daltons) [1] [activity/1000 daltons],Fold adipogenic induction vs. negative control [2],Specific activity (activity/1000 daltons) [2] [activity/1000 daltons],"amount at which a maximum adipogenic effect was obtained ([2]; bone marrow mesenchymal stem cells, depending upon the screening assay used (assay 1 or 2)) [µg]","adipogenesis, absorption of Oil Red O at 520 nm, fold increase compared with negative control [2]","adipogenesis, number of fat droplets relative to negative controls (image analysis) [2]",adipogenesis in tissue culture and in vivo [3],adipogenicity relative to the other reagents of Table 1 [3],"specific activity compared among peptide B and 9-, 7-, 6-mer ([2]; calculated from adipogenesis data of assays 1 and 2)","adipogenic activity of truncation fragments ([2]; truncation experiments, assays 1 and 2, FIGS. 7, 8, 9)"
KLKDENSQLKSEVSK [peptide B],4.0,2.17,1.85,1.0,1 to 5,significantly stimulated adipogenesis as compared to the negative control,significantly stimulated adipogenesis as compared to the negative control,promote adipogenesis in tissue culture and in vivo,the most adipogenic of these reagents,–,–
KSEVSK [KSEVSK 6-mer],2.5,3.32,2.83,3.76,–,significantly stimulated adipogenesis as compared to the negative control,significantly stimulated adipogenesis as compared to the negative control,–,–,highest specific activity,also found to be adipogenic
